Our source for the IC50 values is US12459925B2, “Sulphonyl urea derivatives as NLRP3 inflammasome modulators” (priority 2017, dated 2025).

For orientation: IC50 means the midpoint of a concentration-inhibition curve.

For this assay, the system named is IL-1β release upon NLRP3 activation in peripheral blood mononuclear cells (PBMC). The assay is described as follows: PBMC IC50 determination assay (IL-1β release, Protocol A ELISA / Protocol B HTRF). In kind it is cell-based. To be noted: Homo sapiens; PBMC primed with LPS 3 h, compound 30 min, stimulated with ATP (5 mM) or nigericin (10 μM) 1 h; IL-1β in media; read-out: Average PBMC IC50. The protocol:
The compounds of the present disclosure were tested for their inhibitory activity against IL-1β release upon NLRP3 activation in peripheral blood mononuclear cells (PBMC).
Isolated cells were seeded into the wells of a 96-well plate and incubated for 3 h with lipopolysaccharide (LPS). Following medium exchange, the compounds of the present disclosure were added (a single compound per well) and the cells were incubated for 30 min. Next, the cells were stimulated either with ATP (5 mM) or nigericin (10 μM) for 1 h and the cell culture media from the wells were collected for further analysis.
The release of IL1-β into the media was determined by a quantitative detection of IL-1β in the media using an IL-1β enzyme-linked immunosorbent assay (ELISA) Ready-SET-Go!, eBioscience cat. […] Subsequently, plates were blocked with blocking buffer for 1 h at room temperature (rt) and after washing with a buffer (PBS with 0.05% Tween-20) incubated with protein standard and culture media. […] Plates were washed and incubated with HRP-streptavidin for 30 min at rt and washed again. The signal was developed after addition of 3,3′,5,5′-tetramethylbenzidine-peroxidase (TMB) until colour appeared and the reaction was stopped by 2 M H2SO4. A microplate spectrophotometer (BioTek) was used to detect signals with 450 nm. The detection range of IL-1β ELISA was 2-150 ng/ml.
Isolated cells were seeded into the wells (280,000 cells/well) of a 96-well plate and incubated for 3 h with lipopolysaccharide (LPS, 1 μg/ml diluted 1000× from a 1 mg/ml stock solution). The compounds of the present disclosure were added (a single compound per well) and the cells were incubated for 30 min. Next, the cells were stimulated with ATP (5 mM final concentration diluted 20× from a 100 mM stock solution) for 1 h and the cell culture media from the wells were collected for further analysis.
The release of IL-1β into the media was determined by quantitative detection of IL-1β in the media using HTRF®, CisBio cat. No. 62HIL1BPEH. Briefly, cell culture supernatant were dispensed directly into the assay plate containing antibodies labelled with the HTRF® donor and acceptor. A microplate spectrophotometer (BMG) was used to detect signals at 655 nm and 620 nm. The detection range of IL-1β HTRF® was 39-6500 pg/ml.

Regarding `CN1CC2(CC(N(c3cnn(C)c3)S(=O)(=O)NC(=O)Nc3c4c(cc5c3CCC5)CCC4)C2)C1` [Compound 58], the half-inhibitory concentration (IC50) was in the range of 10000 to 50000 nM.

With `CN1CC(N(c2cnn(C)c2)S(=O)(=O)NC(=O)Nc2c3c(cc4c2CCC4)CCC3)C1` [Compound 59], the 50% inhibitory concentration (IC50) is less than 1000 nM.

For the compound `CN1CCC(N(c2cnn(C)c2)S(=O)(=O)NC(=O)Nc2c3c(cc4c2CCC4)CCC3)CC1C(F)(F)F` (stereo not drawn) [Compound 60], the concentration for half-maximal inhibition (IC50) was less than 1000 nM.

With `Cn1cc(N(C2CCN(CC(F)(F)F)C2)S(=O)(=O)NC(=O)Nc2c3c(cc4c2CCC4)CCC3)cn1` (stereo not drawn) [Compound 61], the half-maximal inhibitory concentration (IC50) was less than 1000 nM.

In the case of `CCN1CCCC(N(c2cnn(C)c2)S(=O)(=O)NC(=O)Nc2c3c(cc4c2CCC4)CCC3)C1` (stereo not drawn) [Compound 62], the half-maximal inhibitory concentration (IC50) was less than 1000 nM.

In the case of `Cn1cc(N(CCN2CCC2)S(=O)(=O)NC(=O)Nc2c3c(cc4c2CCC4)CCC3)cn1` [Compound 63], the concentration for half-maximal inhibition (IC50) was less than 1000 nM.

`CC(C)N1CC(N(c2cnn(C)c2)S(=O)(=O)NC(=O)Nc2c3c(cc4c2CCC4)CCC3)C1` [Compound 64]: the IC50 is less than 1000 nM.

As for `Cn1cc(N(C2CCN(CC(F)(F)F)CC2)S(=O)(=O)NC(=O)Nc2c3c(cc4c2CCC4)CCC3)cn1` [Compound 65], the IC50 fell in the range of 1000 to 3000 nM.

`Cn1cc(N(C2CC3(COC3)C2)S(=O)(=O)NC(=O)Nc2c3c(cc4c2CCC4)CCC3)cn1` [Compound 66]: the IC50 lay in the range of 1000 to 3000 nM.

Consider `CN1CCCC(N(c2cnn(C)c2)S(=O)(=O)NC(=O)Nc2c3c(cc4c2CCC4)CCC3)CC1` (stereo not drawn) [Compound 67], for which the IC50 was less than 1000 nM.

Turning to `CN1CCCC1CN(c1cnn(C)c1)S(=O)(=O)NC(=O)Nc1c2c(cc3c1CCC3)CCC2` (stereo not drawn) [Compound 68], the 50% inhibitory concentration (IC50) was less than 1000 nM.

For the compound `Cn1cc(N(C2CC3(C2)CN(CC(F)(F)F)C3)S(=O)(=O)NC(=O)Nc2c3c(cc4c2CCC4)CCC3)cn1` [Compound 69], the IC50 fell in the range of 3000 to 10000 nM.

Consider `CCc1cc(CC)cc(NC(=O)NS(=O)(=O)N(c2cnn(C)c2)C2CCOCC2)c1` [Compound 70], for which the IC50 was in the range of 3000 to 10000 nM.

Consider `CC(C)c1cccc(NC(=O)NS(=O)(=O)N(c2cnn(C)c2)C2CCOCC2)c1` [Compound 71], for which the 50% inhibitory concentration (IC50) is 10000 to 50000 nM.

Regarding `Cn1cc(N(C2CCOCC2)S(=O)(=O)NC(=O)Nc2cc(Cl)cc(Cl)c2)cn1` [Compound 72], the 50% inhibitory concentration (IC50) lay within 1000 to 3000 nM.

With `CC(C)c1cc(NC(=O)NS(=O)(=O)N(c2cnn(C)c2)C2CCOCC2)cc(C(C)C)c1` [Compound 73], the IC50 was 1000 to 3000 nM.

As for `CC1CN(CCN(c2cnn(C)c2)S(=O)(=O)NC(=O)Nc2c3c(cc4c2CCC4)CCC3)C1` [Compound 74], the IC50 lay in the range of 3000 to 10000 nM.

With `CCc1cc(NC(=O)NS(=O)(=O)N(c2cnn(C)c2)C2CCOCC2)cc(C(F)(F)F)c1` [Compound 75], the IC50 was less than 1000 nM.

For `CCc1cc(C)cc(NC(=O)NS(=O)(=O)N(c2cnn(C)c2)C2CCOCC2)c1` [Compound 76], the IC50 was 1000 to 3000 nM.

Take `CCc1cc(Cl)cc(NC(=O)NS(=O)(=O)N(c2cnn(C)c2)C2CCOCC2)c1` [Compound 77]: the concentration for half-maximal inhibition (IC50) was in the range of 1000 to 3000 nM.

In the case of `Cn1cc(N(C2CCOCC2(C)C)S(=O)(=O)NC(=O)Nc2c3c(cc4c2CCC4)CCC3)cn1` (stereo not drawn) [Compound 78], the IC50 was less than 1000 nM.

In the case of `Cn1cc(N(C2CCOC(C)(C)C2)S(=O)(=O)NC(=O)Nc2c3c(cc4c2CCC4)CCC3)cn1` (stereo not drawn) [Compound 79], the half-inhibitory concentration (IC50) is less than 1000 nM.

`CCc1cc(NC(=O)NS(=O)(=O)N(c2cnn(C)c2)C2CCOCC2)cc(CC)c1F` [Compound 80]: the IC50 is 1000 to 3000 nM.

In the case of `CCc1cc(NC(=O)NS(=O)(=O)N(c2cnn(C)c2)C2CCOCC2)cc(C(C)C)c1` [Compound 81], the IC50 lay within 1000 to 3000 nM.

`CN1CC(N(c2cnn(C)c2)S(=O)(=O)NC(=O)Nc2c3c(cc4c2CCC4)CCC3)CCC1=O` (stereo not drawn) [Compound 82]: the IC50 is less than 1000 nM.

As to `CN1CC(N(c2cnn(C)c2)S(=O)(=O)NC(=O)Nc2c3c(cc4c2CCC4)CCC3)CC1=O` (stereo not drawn) [Compound 83], the IC50 is 1000 to 3000 nM.

`C[C@H]1CC(N(c2cnn(C)c2)S(=O)(=O)NC(=O)Nc2c3c(cc4c2CCC4)CCC3)CCO1` (stereo partly drawn) [Compound 84]: the IC50 was less than 1000 nM.
